According to US20240125801A1, “MARKER FOR DIAGNOSIS OF NONALCOHOLIC FATTY LIVER DISEASE” (BREXOGEN INC., priority 2021, published 2024):

Test system: mice model of NASH induced by MC-deficient diet
Assay: MCD diet-induced NASH mice model
Type: in vivo, C57BL/6 mice
Conditions: BxC-V37e 400 μg/head i.v. or dulaglutide 2 nmol/kg s.c., 4 weeks, FIG. 4
Protocol: Six-week-old C57BL/6 male wild-type mice were obtained from Koatech Co., Ltd. and fed either chow diet (n=6) or a methionine/choline-deficient (MCD) diet (n=15) for […]. Animal care and procedures were approved in the rodent animal facility area of Knotus Co., Ltd. (Korea; Approval Number: 19-KE-265). After the MCD diet was fed for 18 weeks, 2 nmol/kg dulaglutide (GLP-1 receptor agonist) was subcutaneously injected into mice every other day for 4 weeks, and 400 μg/head BxC-e and BxC-V37e were intravenously injected once a day, three times a week, for 4 weeks. At the end of the experiments, the mice were anesthetized, and their serum and liver tissues were collected. […]
Serum samples were collected 4 weeks after the initiation of BxC-V37e injection, and the following parameters were measured using a blood biochemical analyzer (7180, Hitachi, Japan): ALT (Alanine transaminase), AST (Aspartate transaminase), TG (Triglyceride), glucose, TC (total cholesterol), HDL_C (high-density lipoprotein cholesterol), LDL_C (low-density lipoprotein cholesterol), LDH (lactate dehydrogenase), and GGT (gamma-glutamyltransferase).
Liver tissues were fixed in 10% paraformaldehyde and subjected to general tissue treatment, such as cutting, dehydration, and paraffin embedding. […] Both steatosis and hypertrophy were evaluated at magnifications of 40× to 100×. […]

Substance: dulaglutide
- entire liver morphology (colour): No difference
